The results in this text go back to US7094909B2, “HIV protease inhibitors, compositions containing the same, their pharmaceutical uses and materials for their synthesis” (priority 2001, dated 2006).

As usually defined, the EC50 is the concentration needed to bring the measured effect to its halfway point. Broadly, the Ki is a dissociation constant, usually derived from enzyme kinetics or from competition with a known ligand. Read a high Ki as lower affinity. For orientation: melting point means the temperature of the solid-liquid transition. The term IC50 denotes the concentration that inhibits the measured activity by half.

In data set [1] the test system is HIV-1 (HIV-1 RF, HIV-1 NL4-3) in CEM-SS / MT-2 cells. Kind of data set: Cytopathic effect (CPE) inhibition assay (XTT/MTT dye reduction). Format: cell-based. The conditions noted are these: Human immunodeficiency virus 1, NL43; read-out: Ave CPE EC50. The gist of the method: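 CEM-SS or MT-2 cells were infected with HIV-1 RF or NL4-3 (moi 0.025–0.819) and plated at 2×10^4 cells/well with half-log compound dilutions for 6 days. Viability was read by XTT formazan at 450 nm after 4 h. EC50 restores formazan to 50% of uninfected untreated cells, CC50 halves it in uninfected cells, and TI = CC50/EC50.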
On the technique in general: Cytopathic effects are the visible damage that an infection or toxin causes in cultured cells.

For data set [2], the target named is T1, HIV-1 protease (Q7S mutant form) (Human immunodeficiency virus type 1 group M subtype B, UniProt P04585, Q495S).
T1 construct: made in house
Kind of data set: HIV-1 Protease RET assay. The format is biochemical. The following applies: Ave. Ki (nM), RET assay, Q7S enzyme, Morrison tight binding fit. The gist of the method:
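Q7S HIV-1 protease, refolded from urea, 2 nM active dimer with 5 μM EDANS/DABCYL peptide cleaved at Tyr-Pro; fluorescence 340/490 nm. 12 min at 37 °C in 0.1M sodium acetate pH 4.8, 1M NaCl, 10% DMSO. Ki from Morrison tight-binding fit.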

In the next data set the test system is 461, 84V, 90M virus. Kind of data set: Phenotypic susceptibility assay at Virologic, Inc. The following applies: Human immunodeficiency virus 1, read-out: EC50 or IC50 (mM), values with asterisk (IC50). Format: cell-based, HIV-1. The protocol:
Compounds were tested in phenotypic susceptibility assays at Virologic, Inc., (See Petropoulos C. J., Parkin N. T., Limoli K. L., Lie Y. S., Wrin T., Huang W., Tian H., Smith D., Winslow G. A., Capon D J, Whitcomb J M. 2000, “A novel phenotypic drug susceptibility assay for human immunodeficiency virus type 1,” Antimicrob Agents Chemother 44(4):920–928) or using the assay described here. MT-2 cells were infected with either HIV-1 NL4-3 or HIV-1 NL4-3([…]) and incubated in the presence of serial 0.5 log dilutions of test compounds. Three days later, culture supernatants were collected and virus production, as determined by p24 ELISA, was assayed. Percent inhibition was calculated as p24 concentration in compound-treated samples as compared to infected, compound-free controls. Inhibition of viral replication is determined by measuring reduction in HIV p24 present in the culture supernatant, using a Beckman-Coulter p24HIV-1 Ag EIA kit and following the supplied protocol. Absorbance is read on a MRX microplate reader (Dynex Technologies). The EC50 was calculated as the concentration of compound that effected a decrease in the p24 production by infected, compound-treated cells to 50% of that produced by infected, compound-free cells.

In the case of `Cc1c(O)cccc1C(=O)N[C@@H](Cc1ccccc1)[C@H](O)C(=O)N1CSC(C)(C)[C@H]1C(=O)N[C@H]1CCOc2ccccc21` [Example A17, (R)-3-((2S,3S)-2-Hydroxy-3-{[1-(3-hydroxy-2-methyl-phenyl)-methanoyl]-amino}-4-phenyl-butanoyl)-5,5-dimethyl-thiazolidine-4-carboxylic acid (S)-chroman-4-ylamide], the melting point fell in the range of 135 to 136 °C. For the same compound, in data set [1], the EC50 turned out to be 24 nM. Further, the inhibition constant (Ki) in data set [2] is < 0.1 nM. Moreover, the IC50 with 461, 84V, 90M virus turned out to be 49 nM.
In turn, `Cc1c(O)cccc1C(=O)N[C@@H](Cc1ccccc1)[C@H](O)C(=O)N1CSC(C)(C)[C@H]1C(=O)N[C@H]1CCc2ccccc21` [Example A35, (R)-3-((2S,3S)-2-Hydroxy-3-{[1-(3-hydroxy-2-methyl-phenyl)-methanoyl]-amino}-4-phenyl-butanoyl)-5,5-dimethyl-thiazolidine-4-carboxylic acid (S)-indan-1-ylamide] showed a melting point of 204 to 206 °C. Moreover, in data set [1], the EC50 came out at 16 nM. For the same compound, the Ki in data set [2] is < 0.1 nM. In the data set on 461, 84V, 90M virus, the 50% inhibitory concentration (IC50) stood at 41 nM.
On the same counts, the results for `CC1(C)SCN(C(=O)[C@@H](O)[C@H](Cc2ccccc2)NC(=O)O[C@H]2CCOC2)[C@@H]1C(=O)N[C@H]1CCCc2ccccc21` [Example B33, ((1S,2S)-1-Benzyl-3-{(R)-5,5-dimethyl-4-[(S)-(1,2,3,4-tetrahydro-naphthalen-1-yl)carbamoyl]-thiazolidin-3-yl}-2-hydroxy-3-oxo-propyl)-carbamic acid (S)-(tetrahydro-furan-3-yl) ester] are 103 to 105 °C, 45 nM, < 0.1 nM and 604 nM.
